What was measured:
Cytochrome P450 1A2 = Cytochrome P450 1A2 (Homo sapiens, UniProt P05177); test: Inhibition of CYP1A2; type: ADME
[1] = Protein binding in human serum; type: ADME, cell-free; details: read-out: PB (converted)
hERG (KCNH2) = hERG (KCNH2) (Homo sapiens, UniProt Q12809); test: Inhibition of human ERG at 30 uM by patch clamp assay
PBMC = test: Antiinflammatory activity in human PBMC assessed as inhibition of LPS-induced TNFalpha release treated for 5 mins before LPS challenge measured after 4 hrs by ELISA; type: functional, cell-based; details: Homo sapiens, PBMC
[2] = target: T1, Proto-oncogene tyrosine-protein kinase receptor Ret (Homo sapiens, UniProt P07949); test: Inhibition of RET
T1 sequence (P07949 whole entry): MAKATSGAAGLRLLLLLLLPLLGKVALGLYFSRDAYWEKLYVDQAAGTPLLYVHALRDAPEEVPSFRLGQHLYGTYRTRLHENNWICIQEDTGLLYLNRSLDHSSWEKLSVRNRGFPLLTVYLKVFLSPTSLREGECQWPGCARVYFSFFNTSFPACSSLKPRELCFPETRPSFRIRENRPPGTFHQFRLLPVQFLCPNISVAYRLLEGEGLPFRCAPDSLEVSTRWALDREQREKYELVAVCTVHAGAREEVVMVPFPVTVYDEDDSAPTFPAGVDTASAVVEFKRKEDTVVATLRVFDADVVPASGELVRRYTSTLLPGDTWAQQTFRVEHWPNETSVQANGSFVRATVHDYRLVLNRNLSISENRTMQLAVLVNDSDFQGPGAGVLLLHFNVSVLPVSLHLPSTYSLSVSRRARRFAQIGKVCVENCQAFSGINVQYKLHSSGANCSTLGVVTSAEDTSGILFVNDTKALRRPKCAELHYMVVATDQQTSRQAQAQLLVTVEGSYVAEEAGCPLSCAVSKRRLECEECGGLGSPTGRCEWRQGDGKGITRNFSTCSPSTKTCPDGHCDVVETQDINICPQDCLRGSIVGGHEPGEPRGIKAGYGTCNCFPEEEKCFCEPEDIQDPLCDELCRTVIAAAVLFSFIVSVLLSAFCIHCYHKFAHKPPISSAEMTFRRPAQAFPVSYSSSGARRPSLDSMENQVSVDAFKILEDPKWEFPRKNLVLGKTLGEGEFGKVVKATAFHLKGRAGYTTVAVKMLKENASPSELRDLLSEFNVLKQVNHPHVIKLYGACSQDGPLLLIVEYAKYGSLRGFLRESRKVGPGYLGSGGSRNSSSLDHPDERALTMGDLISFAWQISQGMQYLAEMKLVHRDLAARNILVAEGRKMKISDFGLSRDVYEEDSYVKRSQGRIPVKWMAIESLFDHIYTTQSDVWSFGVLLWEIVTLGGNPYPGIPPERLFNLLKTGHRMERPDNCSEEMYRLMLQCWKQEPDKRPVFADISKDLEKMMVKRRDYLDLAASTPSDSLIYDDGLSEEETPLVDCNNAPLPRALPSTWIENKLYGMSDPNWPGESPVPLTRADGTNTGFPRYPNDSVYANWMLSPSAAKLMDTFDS

[3] = Cmax in mouse at 3 mg/kg, po; type: ADME, organism-based; parameters: dose 3 mg/kg, route oral; details: in vivo
[4] = Protein binding in rat serum; type: ADME, cell-free; details: read-out: PB (converted)
[5] = target: T2, Inhibitor of nuclear factor kappa-B kinase subunit beta (Homo sapiens, UniProt O14920); test: Inhibition of human IKK2-mediated GST-IkappaBalpha protein fusion phosphorylation
T2 sequence (O14920 whole entry): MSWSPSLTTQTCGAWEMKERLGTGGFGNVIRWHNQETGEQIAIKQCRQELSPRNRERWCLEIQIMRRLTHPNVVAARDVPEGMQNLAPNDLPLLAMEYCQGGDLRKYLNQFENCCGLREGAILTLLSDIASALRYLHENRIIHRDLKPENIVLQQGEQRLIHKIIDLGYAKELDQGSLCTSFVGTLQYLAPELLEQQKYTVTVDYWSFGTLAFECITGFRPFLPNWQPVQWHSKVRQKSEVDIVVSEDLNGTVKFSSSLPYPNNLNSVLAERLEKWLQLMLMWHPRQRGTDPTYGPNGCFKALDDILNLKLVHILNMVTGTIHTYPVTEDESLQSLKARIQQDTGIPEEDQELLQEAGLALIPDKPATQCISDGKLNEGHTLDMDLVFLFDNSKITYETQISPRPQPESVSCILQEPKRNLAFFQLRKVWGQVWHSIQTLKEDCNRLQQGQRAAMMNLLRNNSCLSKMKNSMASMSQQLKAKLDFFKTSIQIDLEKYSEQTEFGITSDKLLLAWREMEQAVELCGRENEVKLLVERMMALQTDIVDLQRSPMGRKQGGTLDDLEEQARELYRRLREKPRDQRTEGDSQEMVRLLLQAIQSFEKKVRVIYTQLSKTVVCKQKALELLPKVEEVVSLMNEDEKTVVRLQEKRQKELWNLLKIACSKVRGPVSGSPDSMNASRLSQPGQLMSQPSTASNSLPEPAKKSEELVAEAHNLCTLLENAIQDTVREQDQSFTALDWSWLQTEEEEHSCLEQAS

[6] = target: T1, Proto-oncogene tyrosine-protein kinase receptor Ret; test: Inhibition of RET at 10 uM
[7] = target: T3, Vascular endothelial growth factor receptor 3 (Homo sapiens, UniProt P35916); test: Inhibition of FLT4 at 10 uM
T3 sequence (P35916 whole entry): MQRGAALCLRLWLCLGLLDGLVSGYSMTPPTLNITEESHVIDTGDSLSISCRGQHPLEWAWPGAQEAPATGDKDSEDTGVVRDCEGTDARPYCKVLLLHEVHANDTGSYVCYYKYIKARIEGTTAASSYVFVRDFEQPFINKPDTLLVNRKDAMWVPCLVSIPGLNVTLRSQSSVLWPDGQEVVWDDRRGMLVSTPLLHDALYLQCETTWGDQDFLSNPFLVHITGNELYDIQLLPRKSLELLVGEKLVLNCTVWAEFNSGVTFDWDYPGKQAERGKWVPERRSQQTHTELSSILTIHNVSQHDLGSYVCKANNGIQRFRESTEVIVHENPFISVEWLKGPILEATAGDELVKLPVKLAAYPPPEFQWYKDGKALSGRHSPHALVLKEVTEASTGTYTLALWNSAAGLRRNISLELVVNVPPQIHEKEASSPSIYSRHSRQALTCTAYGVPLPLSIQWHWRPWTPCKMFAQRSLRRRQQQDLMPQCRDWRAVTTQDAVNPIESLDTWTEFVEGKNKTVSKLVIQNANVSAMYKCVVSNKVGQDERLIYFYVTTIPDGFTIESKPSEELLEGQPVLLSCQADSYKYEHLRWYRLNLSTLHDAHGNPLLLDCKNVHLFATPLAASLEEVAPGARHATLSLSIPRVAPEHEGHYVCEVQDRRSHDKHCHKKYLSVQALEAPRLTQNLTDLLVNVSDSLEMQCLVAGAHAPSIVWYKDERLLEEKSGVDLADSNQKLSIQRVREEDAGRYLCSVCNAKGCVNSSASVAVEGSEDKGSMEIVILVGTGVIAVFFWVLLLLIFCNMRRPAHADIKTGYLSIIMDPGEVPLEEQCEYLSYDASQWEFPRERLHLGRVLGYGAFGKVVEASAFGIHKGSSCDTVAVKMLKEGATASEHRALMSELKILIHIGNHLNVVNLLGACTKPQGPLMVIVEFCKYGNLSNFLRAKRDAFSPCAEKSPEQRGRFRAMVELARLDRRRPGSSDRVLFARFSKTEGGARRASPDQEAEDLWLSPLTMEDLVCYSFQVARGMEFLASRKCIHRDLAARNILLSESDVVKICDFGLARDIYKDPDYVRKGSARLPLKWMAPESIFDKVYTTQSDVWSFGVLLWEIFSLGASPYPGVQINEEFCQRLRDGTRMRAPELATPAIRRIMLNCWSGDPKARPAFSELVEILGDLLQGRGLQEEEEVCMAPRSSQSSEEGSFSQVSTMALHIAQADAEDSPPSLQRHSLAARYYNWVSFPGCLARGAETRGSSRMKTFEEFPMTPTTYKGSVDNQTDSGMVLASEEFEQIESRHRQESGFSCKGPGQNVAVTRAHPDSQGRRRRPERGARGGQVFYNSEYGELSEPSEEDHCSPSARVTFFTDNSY

[8] = target: T3, Vascular endothelial growth factor receptor 3; test: Inhibition of FLT4
[9] = Half life in dog at 1 mg/kg, iv; type: ADME, organism-based, Canis lupus familiaris; parameters: dose 1 mg/kg, route intravenous; details: in vivo
[10] = Oral bioavailability in Lewis rat at 10 mg/kg; type: ADME, organism-based; details: in vivo
Mus musculus = test: Reduction in TNBS-induced colitis in mouse […] model assessed as decrease of body weight at 3 mg/kg, administered intrarectally 1 day before TNBS challenge twice daily for 4 days; type: functional; parameters: scale not given: the % may be the effect or the level left

hERG (KCNH2), sequence (Q12809 whole entry): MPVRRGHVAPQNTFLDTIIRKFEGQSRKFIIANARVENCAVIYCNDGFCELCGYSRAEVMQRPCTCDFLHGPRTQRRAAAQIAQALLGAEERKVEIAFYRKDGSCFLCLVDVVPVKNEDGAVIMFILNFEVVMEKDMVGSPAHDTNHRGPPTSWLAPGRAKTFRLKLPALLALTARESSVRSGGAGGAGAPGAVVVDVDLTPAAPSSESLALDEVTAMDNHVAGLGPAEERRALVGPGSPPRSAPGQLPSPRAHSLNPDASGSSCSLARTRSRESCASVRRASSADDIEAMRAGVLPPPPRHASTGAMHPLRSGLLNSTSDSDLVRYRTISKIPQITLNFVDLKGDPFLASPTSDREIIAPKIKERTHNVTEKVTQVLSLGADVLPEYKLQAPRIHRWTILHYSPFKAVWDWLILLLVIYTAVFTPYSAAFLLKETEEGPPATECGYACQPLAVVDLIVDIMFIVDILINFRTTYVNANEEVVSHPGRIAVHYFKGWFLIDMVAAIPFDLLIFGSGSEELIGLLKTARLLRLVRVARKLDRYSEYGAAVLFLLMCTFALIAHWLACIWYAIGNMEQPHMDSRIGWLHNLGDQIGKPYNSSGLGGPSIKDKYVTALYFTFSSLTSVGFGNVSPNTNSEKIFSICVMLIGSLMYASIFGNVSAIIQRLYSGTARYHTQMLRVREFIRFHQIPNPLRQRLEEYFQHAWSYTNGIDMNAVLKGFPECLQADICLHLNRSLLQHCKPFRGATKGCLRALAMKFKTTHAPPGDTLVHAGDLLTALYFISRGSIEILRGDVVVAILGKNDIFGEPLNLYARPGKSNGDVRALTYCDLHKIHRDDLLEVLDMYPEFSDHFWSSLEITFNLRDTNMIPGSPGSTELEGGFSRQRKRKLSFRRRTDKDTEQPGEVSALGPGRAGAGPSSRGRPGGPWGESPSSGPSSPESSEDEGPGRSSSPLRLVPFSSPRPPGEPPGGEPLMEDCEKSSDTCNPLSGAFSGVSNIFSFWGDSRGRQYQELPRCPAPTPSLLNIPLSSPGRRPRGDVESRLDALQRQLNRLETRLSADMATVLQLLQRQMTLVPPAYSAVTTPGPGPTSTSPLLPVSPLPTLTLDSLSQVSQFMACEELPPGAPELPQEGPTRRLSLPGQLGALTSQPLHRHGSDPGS
Cytochrome P450 1A2, sequence (P05177 whole entry): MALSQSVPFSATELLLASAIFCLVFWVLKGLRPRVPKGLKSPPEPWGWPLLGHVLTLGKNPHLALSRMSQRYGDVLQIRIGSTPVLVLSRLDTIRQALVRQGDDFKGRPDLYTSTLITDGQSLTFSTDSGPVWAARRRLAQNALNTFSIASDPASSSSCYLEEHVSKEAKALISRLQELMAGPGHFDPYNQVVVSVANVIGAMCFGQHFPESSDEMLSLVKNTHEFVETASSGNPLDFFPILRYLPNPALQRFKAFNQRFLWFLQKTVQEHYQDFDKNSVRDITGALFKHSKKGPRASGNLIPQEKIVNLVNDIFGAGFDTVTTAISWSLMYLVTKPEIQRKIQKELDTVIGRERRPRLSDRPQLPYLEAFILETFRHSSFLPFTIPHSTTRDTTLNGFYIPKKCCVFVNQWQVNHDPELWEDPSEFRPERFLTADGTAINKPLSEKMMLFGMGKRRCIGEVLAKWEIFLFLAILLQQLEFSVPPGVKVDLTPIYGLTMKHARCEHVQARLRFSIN

- IC50 (Cytochrome P450 1A2): > 40000 nM
- fraction unbound [1]: 0.074
- IC50 [2]: 614 nM
- Cmax [3]: 1600 nM
- fraction unbound [4]: 0.069
- IC50 [5]: 9 nM
- inhibition [6]: > 75%
- inhibition [7]: > 75%
- IC50 [8]: 360 nM
- half-life [9]: 3.3 h
- bioavailability [10]: 90%
SMILES: CNc1nc2[nH]c(-c3cccc(CNC(=O)COC)n3)cc2c2c1ncn2C
- inhibition at 30 µM (hERG (KCNH2)): 18%
- IC50 (PBMC): 150 nM
- Activity (Mus musculus): 10%

Source: ChEMBL document CHEMBL1921674, “Novel tricyclic inhibitors of IKK2: discovery and SAR leading to the identification of 2-methoxy-N-((6-(1-methyl-4-(methylamino)-1,6-dihydroimidazo[4,5-d]pyrrolo[2,3-b]pyridin-7-yl)pyridin-2-yl)methyl)acetamide (BMS-066)” (Bioorg Med Chem Lett, 2011)
